# According to patent US20240197726A1, “NOVEL TETRAHYDROISOQUINOLINE ALKALOID COMPOUND CONTAINING MACROCYCLE” (THE UNIVERSITY OF TOKYO, priority 2021, published 2024):
# Like-named read-outs stand apart in the source and are kept apart here.
# Tests used:
# Format in all cases: cell-based
# [1] = tested on: HBC-4 breast cancer cells; assay: antitumor activity, sulforhodamine B cell growth assay, HBC-4; conditions: HBC4
# Method: (§1) The THIQ compound containing a macrocyclic structure of the present invention was administered to various cancer cell lines, and the antitumor activity (Go value) was observed. Specifically, verification was performed according to the literature (Yamori, T.; Matsunaga, A.; Sato, S.; Yamazaki, K.; Komi, A.; Ishizu, K. et al. Cancer Res. 1999, 59, 4042) by the following procedure.
# (§2) Cells were plated at an appropriate density in a 96-well plate in RPMI 1640 together with 5% fetal bovine serum, and adhered overnight. The cells were exposed to a drug for 48 hours. Then, according to the sulforhodamine B assay described by Skehan et al (Skehan P., Storeng R., Scudiero D., Monks A., McMahon J., Vistica D., Warren J. T., Bokesch H., Kenney S., Boyd M. R. J Natl. Cancer Inst, 1990, 82, 1107-1112), the cell growth rate was measured. The absorbance of the control well (C) and the test well (T) was measured at 525 nm. In addition, the time at which the drug was added was set as time 0, and the absorbance for the test well (T0) was measured. Using these measured values, the cell growth inhibitory effect (% growth=PG) was calculated by the following formula at each concentration of the drug.
# (§3) (T<T0): PG=100×[(T−T0)/T]
# (§4) The PG values determined above for each cell line were plotted against the concentration (logarithm) on a semi-logarithmic graph, and summarized for each visceral cancer. Concentrations at which the dose-response curve of each cell line crossed the horizontal line of PG=50%, 0%, or −50% were calculated. These concentrations were defined as Log GI50, Log TGI, and Log LC50. Actually, using two data points of the drug concentration before and after crossing each horizontal line, the drug concentration (logarithmic value) at the intersection of the straight line connecting the two points and the horizontal line for each PG was calculated.
# [2] = tested on: HCT-15 colorectal cancer cells; assay: antitumor activity, sulforhodamine B cell growth assay, HCT-15; conditions: Homo sapiens
# Method: as §1, §2, §3, §4
# [3] = tested on: SF-295 central nervous system cancer cells; assay: antitumor activity, sulforhodamine B cell growth assay, SF-295; conditions: Homo sapiens
# Method: as §1, §2, §3, §4
# [4] = tested on: KM-12 colorectal cancer cells; assay: antitumor activity, sulforhodamine B cell growth assay, KM-12; conditions: Homo sapiens, KM12
# Method: as §1, §2, §3, §4
# DMS273 lung cancer cells = assay: antitumor activity, sulforhodamine B cell growth assay, DMS273; conditions: Homo sapiens, DMS-273
# Method: as §1, §2, §3, §4
# [5] = tested on: BSY-1 breast cancer cells; assay: antitumor activity, sulforhodamine B cell growth assay, BSY-1
# Method: as §1, §2, §3, §4
# [6] = tested on: MKN74 gastric cancer cells; assay: antitumor activity, sulforhodamine B cell growth assay, MKN74; conditions: Homo sapiens, MKN-74
# Method: as §1, §2, §3, §4
# A549 lung cancer cells = assay: antitumor activity, sulforhodamine B cell growth assay, A549; conditions: Homo sapiens
# Method: as §1, §2, §3, §4
# [7] = tested on: MKN-B gastric cancer cells; assay: antitumor activity, sulforhodamine B cell growth assay, MKN-B
# Method: as §1, §2, §3, §4
# DMS114 lung cancer cells = assay: antitumor activity, sulforhodamine B cell growth assay, DMS114; conditions: Homo sapiens, DMS-114
# Method: as §1, §2, §3, §4
# [8] = tested on: PC-3 prostate cancer cells; assay: antitumor activity, sulforhodamine B cell growth assay, PC-3
# Method: as §1, §2, §3, §4
# [9] = tested on: MDA-MB-231 breast cancer cells; assay: antitumor activity, sulforhodamine B cell growth assay, MDA-MB-231; conditions: Homo sapiens
# Method: as §1, §2, §3, §4
# OVCAR-3 cancer cells = assay: antitumor activity, sulforhodamine B cell growth assay, OVCAR-3; conditions: Homo sapiens
# Method: as §1, §2, §3, §4
# [10] = tested on: U251 central nervous system cancer cells; assay: antitumor activity, sulforhodamine B cell growth assay, U251; conditions: Homo sapiens, U-251
# Method: as §1, §2, §3, §4
# [11] = tested on: OVCAR-5 cervical cancer cells; assay: antitumor activity, sulforhodamine B cell growth assay, OVCAR-5; conditions: Homo sapiens
# Method: as §1, §2, §3, §4
# [12] = tested on: NCI-H522 lung cancer cells; assay: antitumor activity, sulforhodamine B cell growth assay, NCI-H522; conditions: Homo sapiens
# Method: as §1, §2, §3, §4
# OVCAR-4 cancer cells = assay: antitumor activity, sulforhodamine B cell growth assay, OVCAR-4; conditions: Homo sapiens
# Method: as §1, §2, §3, §4
# [13] = tested on: MKN45 gastric cancer cells; assay: antitumor activity, sulforhodamine B cell growth assay, MKN45; conditions: Homo sapiens, MKN-45
# Method: as §1, §2, §3, §4
# [14] = tested on: SF-268 central nervous system cancer cells; assay: antitumor activity, sulforhodamine B cell growth assay, SF-268; conditions: Homo sapiens
# Method: as §1, §2, §3, §4
# [15] = tested on: DU-145 prostate cancer cells; assay: antitumor activity, sulforhodamine B cell growth assay, DU-145; conditions: Homo sapiens
# Method: as §1, §2, §3, §4
# OVCAR-8 cancer cells = assay: antitumor activity, sulforhodamine B cell growth assay, OVCAR-8; conditions: Homo sapiens
# Method: as §1, §2, §3, §4
# [16] = tested on: NCI-H23 lung cancer cells; assay: antitumor activity, sulforhodamine B cell growth assay, NCI-H23; conditions: Homo sapiens
# Method: as §1, §2, §3, §4
smiles,measurement,setting,value
C#CCN1C(=O)[C@H]2[C@@H]3C=C(COc4c(C)c5c(c6c4C[C@H]4[C@H]7c8c(cc(C)c(OC)c8O)C[C@@H]([C@H](C#N)N4C6CNC(=O)[C@H](C)NC(=O)OC3)N7C)OCO5)C[C@H]2C1=O [Compound 47],GI50,"[1]; HBC-4 breast cancer cells, read-out: antitumor activity GI50 value: 50% growth inhibitory concentration",200 nM
same,GI50,"[2]; HCT-15 colorectal cancer cells, read-out: antitumor activity GI50 value: 50% growth inhibitory concentration",2200 nM
same,GI50,"[3]; SF-295 central nervous system cancer cells, read-out: antitumor activity GI50 value: 50% growth inhibitory concentration",1800 nM
same,GI50,"[4]; KM-12 colorectal cancer cells, read-out: antitumor activity GI50 value: 50% growth inhibitory concentration",450 nM
same,GI50,"DMS273 lung cancer cells; DMS273 lung cancer cells, read-out: antitumor activity GI50 value: 50% growth inhibitory concentration",450 nM
same,GI50,"[5]; BSY-1 breast cancer cells, read-out: antitumor activity GI50 value: 50% growth inhibitory concentration",150 nM
same,GI50,"[6]; MKN74 gastric cancer cells, read-out: antitumor activity GI50 value: 50% growth inhibitory concentration",1500 nM
same,GI50,"A549 lung cancer cells; A549 lung cancer cells, read-out: antitumor activity GI50 value: 50% growth inhibitory concentration",3900 nM
same,GI50,"[7]; MKN-B gastric cancer cells, read-out: antitumor activity GI50 value: 50% growth inhibitory concentration",730 nM
same,GI50,"DMS114 lung cancer cells; DMS114 lung cancer cells, read-out: antitumor activity GI50 value: 50% growth inhibitory concentration",31 nM
same,GI50,"[8]; PC-3 prostate cancer cells, read-out: antitumor activity GI50 value: 50% growth inhibitory concentration",1500 nM
same,GI50,"[9]; MDA-MB-231 breast cancer cells, read-out: antitumor activity GI50 value: 50% growth inhibitory concentration",180 nM
same,GI50,"OVCAR-3 cancer cells; OVCAR-3 cervical cancer cells, read-out: antitumor activity GI50 value: 50% growth inhibitory concentration",330 nM
same,GI50,"[10]; U251 central nervous system cancer cells, read-out: antitumor activity GI50 value: 50% growth inhibitory concentration",350 nM
same,GI50,"[11]; OVCAR-5 cervical cancer cells, read-out: antitumor activity GI50 value: 50% growth inhibitory concentration",2800 nM
same,GI50,"[12]; NCI-H522, NCl-H522 lung cancer cells, read-out: antitumor activity GI50 value: 50% growth inhibitory concentration",29 nM
same,GI50,"OVCAR-4 cancer cells; OVCAR-4 cervical cancer cells, read-out: antitumor activity GI50 value: 50% growth inhibitory concentration",3500 nM
same,GI50,"[13]; MKN45 gastric cancer cells, read-out: antitumor activity GI50 value: 50% growth inhibitory concentration",470 nM
same,GI50,"[14]; SF-268 central nervous system cancer cells, read-out: antitumor activity GI50 value: 50% growth inhibitory concentration",620 nM
same,GI50,"[15]; DU-145 prostate cancer cells, read-out: antitumor activity GI50 value: 50% growth inhibitory concentration",3900 nM
same,GI50,"OVCAR-8 cancer cells; OVCAR-8 cervical cancer cells, read-out: antitumor activity GI50 value: 50% growth inhibitory concentration",1100 nM
same,GI50,"[16]; NCI-H23, NCl-H23 lung cancer cells, read-out: antitumor activity GI50 value: 50% growth inhibitory concentration",850 nM
COc1c(C)cc2c(c1O)[C@@H]1[C@@H]3Cc4c5c(C)c6c(c4C(CNC(=O)[C@H](C)NC(=O)OCC4C=C(CO5)Cn5c(=O)n(-c7ccccc7)c(=O)n54)N3[C@@H](C#N)[C@H](C2)N1C)OCO6 [Compound 16],GI50,"[1]; HBC-4, drug exposure 48 hours, read-out: GI50 value: 50% growth inhibitory concentration",5.2 nM
same,GI50,"[2]; HCT-15, drug exposure 48 hours, read-out: GI50 value: 50% growth inhibitory concentration",43 nM
same,GI50,"[3]; SF-295, drug exposure 48 hours, read-out: GI50 value: 50% growth inhibitory concentration",29 nM
same,GI50,"[4]; KM-12, drug exposure 48 hours, read-out: GI50 value: 50% growth inhibitory concentration",14 nM
same,GI50,"DMS273 lung cancer cells; DMS273, drug exposure 48 hours, read-out: GI50 value: 50% growth inhibitory concentration",15 nM
same,GI50,"[5]; BSY-1, drug exposure 48 hours, read-out: GI50 value: 50% growth inhibitory concentration",3.1 nM
same,GI50,"[6]; MKN74, drug exposure 48 hours, read-out: GI50 value: 50% growth inhibitory concentration",32 nM
same,GI50,"A549 lung cancer cells; A549, drug exposure 48 hours, read-out: GI50 value: 50% growth inhibitory concentration",51 nM
same,GI50,"[7]; MKN-B, drug exposure 48 hours, read-out: GI50 value: 50% growth inhibitory concentration",30 nM
same,GI50,"DMS114 lung cancer cells; DMS114, drug exposure 48 hours, read-out: GI50 value: 50% growth inhibitory concentration",3.8 nM
same,GI50,"[8]; PC-3, drug exposure 48 hours, read-out: GI50 value: 50% growth inhibitory concentration",26 nM
same,GI50,"[9]; MDA-MB-231, drug exposure 48 hours, read-out: GI50 value: 50% growth inhibitory concentration",6.7 nM
same,GI50,"OVCAR-3 cancer cells; OVCAR-3, drug exposure 48 hours, read-out: GI50 value: 50% growth inhibitory concentration",6.4 nM
same,GI50,"[10]; U251, drug exposure 48 hours, read-out: GI50 value: 50% growth inhibitory concentration",5.8 nM
same,GI50,"[11]; OVCAR-5, drug exposure 48 hours, read-out: GI50 value: 50% growth inhibitory concentration",31 nM
same,GI50,"[12]; NCI-H522, drug exposure 48 hours, read-out: GI50 value: 50% growth inhibitory concentration",2.4 nM
same,GI50,"OVCAR-4 cancer cells; OVCAR-4, drug exposure 48 hours, read-out: GI50 value: 50% growth inhibitory concentration",36 nM
same,GI50,"[13]; MKN45, drug exposure 48 hours, read-out: GI50 value: 50% growth inhibitory concentration",7.1 nM
same,GI50,"[14]; SF-268, drug exposure 48 hours, read-out: GI50 value: 50% growth inhibitory concentration",13 nM
same,GI50,"[15]; DU-145, drug exposure 48 hours, read-out: GI50 value: 50% growth inhibitory concentration",41 nM
same,GI50,"OVCAR-8 cancer cells; OVCAR-8, drug exposure 48 hours, read-out: GI50 value: 50% growth inhibitory concentration",21 nM
same,GI50,"[16]; NCI-H23, drug exposure 48 hours, read-out: GI50 value: 50% growth inhibitory concentration",20 nM
